Values quoted from earlier work as cited in patent publication US8584539B2, “Delivery device for dispensing pharmaceutical dosage forms into dissolution testing apparatus” (Rohm and Haas Company, priority 2010, dated 2013).
Where two headings read alike, the source gives them in different places.

solubility (low pH of the stomach): essentially insoluble
solubility (near neutral conditions of the upper GI): soluble
SMILES: O=C(O)Cc1ccccc1Nc1c(Cl)cccc1Cl [diclofenac sodium]
